Data published in US10124076B2, “Imaging agents and methods of use thereof” (Huntington Medical Research Institutes, priority 2007, dated 2018).
One block for each substance: values may come before it.

Experiments:
[1] = T1 relaxation time of the hyperpolarized product, experimentally determined; type: physicochemical
Method: Sub-second carbon imaging is greatly simplified when the signal of interest exceeds the background signal from natural abundance resonances. This is possible when a ^13C hyperpolarized agent is injected. […] Long T1 (in excess of ten seconds) is obtained for ^13C in small molecules at sites where there is no directly attached proton. Deuteration can be used to achieve this (e.g., glucose) and it occurs naturally for carbonyls. Enhancements in excess of 1000 from hyperpolarization are obtained in the first 5 T1 (i.e., imaging and spectroscopy experiment should be accomplished within 100-225 seconds after hyperpolarizing the molecules). For the molecules proposed, the hyperpolarization decays with a time constant of 20-45 seconds (T1 relaxation time of the agent) and therefore long scan times are not feasible. In order to overcome this problem, the inventors have successfully reprogrammed several fast imaging pulse sequences with multinuclear capability (multinuclear pulse sequences, broadband amplifier, and multinuclear coils).
Specifically, the inventors have identified four water soluble biomolecules for hyperpolarization. The four molecules can be either commercially obtained or custom synthesized. In the cases of hyperpolarization by PASADENA, both the precursors and the hydrogenated products are water soluble and the hydrogenation experiments have achieved high yields. T1 times were experimentally determined.

[2] = DNP hyperpolarization in HyperSense polarizer, 13C NMR decay of magnetization; conditions: DNP hyperpolarized
Description: FIG. 9. ^13C NMR spectrum of DNP hyperpolarized CD3 ^13COO^−Na using OX63 radical (Sample 1). The SNR from the spectral sequence depicted in FIG. 9 are shown in the corresponding table.
FIG. 10. 13C NMR spectrum of hyperpolarized CD3 ^13COO^−Na^+ using Finland radical (Sample 2). The SNR from the spectral sequence depicted in FIG. 10 are shown in the corresponding table.
C. A sample of the proposed molecule, Sodium ^13Cl-acetate-d3, was hyperpolarized in water with two different electron donors (FIGS. 9 & 10) in a DNP HyperSense polarizer, and the time course of the decay of the magnetization studied. The SNR obtained from the first spectrum collected from polarized sample 2 is clearly less than that obtained from sample 1, showing that Sodium acetate has a preference for the more polar radical OX63. Both OX63 and Finland are triaryl based radicals and are commercially available form Oxford Instruments, UK. Clearly, the inventors' molecule can render over 10,000 fold signal enhancement by DNP with very long T1 time. The polarization will survive around 325 seconds (5 T1). This allows a large enough time (>5 minutes) window to effectively monitor the first six minutes of uptake and metabolism of hyperpolarized sodium acetate within the glial cells of the rat brain by ^13C NMR.

- experimentally determined T1 ([1]; 1-13C of perdeuterated glucose): 20 s
- time window of observing the transfer of polarization (5 T1) ([1]; hyperpolarized glucose metabolized to TCA cycle metabolites): ~100 s
Substance: 1-^13C glucose [perdeuterated 1-^13C of glucose]

- T1 of the Product ([1]; Table 2, product of PASADENA or DNP hyperpolarization): 40 s
Substance: ^13C1-^13C5 deuterated glutamine

Substance: Sodium ^13Cl-acetate-d3
- polarization survival time (5 T1) [2]: around 325 seconds
